Consider four molecules from ChEMBL document CHEMBL2321708, “Modulators of the GPR119 Receptor for the Treatment of Metabolic Syndrome” (ACS Med Chem Lett, 2013).

Molecules are shown by their SMILES.

As usually defined, the EC50 is the concentration that produces a half-maximal response. Read a high EC50 as a less potent agent.

Holding throughout (type): functional
Test [1] deals with T1, Glucose-dependent insulinotropic receptor (Homo sapiens, UniProt Q8TDV5).
T1 sequence (Q8TDV5 whole entry): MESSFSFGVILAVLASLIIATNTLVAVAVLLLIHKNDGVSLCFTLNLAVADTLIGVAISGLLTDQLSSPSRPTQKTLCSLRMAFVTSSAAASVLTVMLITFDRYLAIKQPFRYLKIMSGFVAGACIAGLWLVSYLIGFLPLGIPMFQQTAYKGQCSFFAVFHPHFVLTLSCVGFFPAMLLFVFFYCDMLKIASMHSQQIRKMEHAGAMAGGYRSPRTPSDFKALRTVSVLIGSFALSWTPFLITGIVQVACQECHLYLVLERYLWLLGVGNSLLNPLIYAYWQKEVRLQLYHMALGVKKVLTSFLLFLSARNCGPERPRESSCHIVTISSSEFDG
Description: Agonist activity at human GPR119 by HTRF cAMP assay. A general note: In TR-FRET formats the signal depends on donor and acceptor labels being close together.

Test [2] is described as follows: Effect on glucose homeostasis in diabetes model (unknown origin) assessed as release of GIP at 3 mg/kg, […] measured 60 mins post glucose challenge.
Test [3] concerns unidentified. Description: Effect on glucose homeostasis in diabetes model (unknown origin) assessed as release of GIP at 30 mg/kg, po administered intratracheally measured 30 mins before glucose challenge.
The nature of test [4]: Effect on glucose homeostasis in diabetes model (unknown origin) assessed as release of GIP at 3 mg/kg, […] measured 20 mins post glucose challenge.
Test [5] can be described thus: Effect on glucose homeostasis in diabetes model (unknown origin) assessed as release of GIP at 3 mg/kg, […] measured 120 mins post glucose challenge.
Test [6] can be described thus: Effect on glucose homeostasis in diabetes model (unknown origin) assessed as release of GIP at 3 mg/kg, […] measured 30 mins before glucose challenge.
The nature of test [7]: Effect on glucose homeostasis in diabetes model (unknown origin) assessed as release of GIP at 3 mg/kg, […] measured 40 mins post glucose challenge.
Test [8] has as its system unidentified. Description: Effect on glucose homeostasis in diabetes model (unknown origin) assessed as release of GIP at 30 mg/kg, […] measured 40 mins post glucose challenge.
Test [9] relates to unidentified. Description: Effect on glucose homeostasis in diabetes model (unknown origin) assessed as release of GIP at 30 mg/kg, […] measured 20 mins post glucose challenge.
The test system of test [10] is unidentified. Description: Effect on glucose homeostasis in diabetes model (unknown origin) assessed as release of GIP at 30 mg/kg, po administered intratracheally measured 120 mins post glucose challenge.
The subject of test [11] is unidentified. Description: Effect on glucose homeostasis in diabetes model (unknown origin) assessed as release of GIP at 30 mg/kg, […] measured 60 mins post glucose challenge.

The molecule `CC(C)(C)OC(=O)N1CCC(CO[C@H]2CC[C@H](c3cnc(S(C)(=O)=O)cn3)CC2)CC1` yielded an EC50 in [1] of 707 nM.
Same read-out and setting: for `CC(C)c1noc(N2CCC(CO[C@H]3CC[C@H](c4ccc(S(C)(=O)=O)cc4F)CC3)CC2)n1` the value was 38 nM; for `CC(C)(F)c1noc(N2CCC(COC3CC=C(c4ccc(S(C)(=O)=O)cc4)CC3)CC2)n1` (stereo not drawn), 15 nM.
Regarding `CCc1cnc(N2CCC(CO[C@H]3CC[C@H](c4ccc(S(C)(=O)=O)cc4F)CC3)CC2)nc1`, the Activity is 262.8% in test [2]; 72.2% in the test on unidentified [3]; 201.3% in test [4]; 163.3% in test [5]; 88.7% in test [6]; 250.2% in test [7]. Besides, the Activity is recorded as 204.2% in the test with unidentified [8], 163.5% with unidentified [9], 107.5% in the test on unidentified [10] and 193.2% in the test with unidentified [11].
